Bridges are numbered along the chain shown (N, C = ends). The star is where a group is joined. Biotin = O=C1N[C@H]2[C@H](CS[C@H]2CCCCC(=O)*)N1
Assays:
[1] = target: NADPH oxidase (macrophage membrane liposomes, cytochrome b558) (Cavia porcellus, UniProt H0UXC6); type: biochemical, guinea pig
[2] = PDI reductase activity, DE-GSSG reduction; type: biochemical; settings: for PDI activity of isolated Nox2 peptides: DE-GSSG reduction over a wide concentration range
p67^phox(1–526) [3] = test: Effect of thiol reagents on binding of p67phox(1–526) to Nox2 peptide 24; settings: 1 h room temperature
[4] = test system: recombinant 6His-p67^phox; test: Peptide–protein binding assay / peptide walking, p67phox; settings: statement of Results section
p67^phox(1–212) [5] = test: Peptide–protein binding assay, p67phox(1–212); settings: native (non-disulfide) peptide
p67^phox(1–526) [6] = test: Peptide–protein binding assay, p67phox(1–526); settings: native (non-disulfide) peptide
[7] = test system: recombinant 6His-p67^phox; settings: manuscript in preparation, cited from earlier work; for binding of p67phox to overlapping 15-mer peptides (peptide walking): ref Dahan and Pick; for binding of p67phox after introduction of intramolecular disulfide bond between C369 and C371 / binding of p67phox after reduction of the disulfide bond and alkylation of the reduced thiols: ref Fradin et al., [2011], [2012], Pick, Fradin and Pick
Source text: The cytosolic segment of Nox2 is also known as the dehydrogenase region (DHR) by virtue of the fact that it contains the NADPH- and FAD-binding sites and is homologous to the prokaryotic protein ferredoxin-NADP^+ reductase. The DHR comprises binding sites for p47^phox and Rac but, so far, there is no solid evidence for the identity of the binding site(s) for p67^phox. We approached this question by applying the “peptide walking” methodology (Joseph and Pick, [1995]; Dahan et al., [2012]; Dahan and Pick, [2012]). […] An important observation was that enhanced binding of p67^phox was evident only when the disulfide bond was established between two non-adjacent cysteines and between cysteines present in the same peptide; when the CGC tria ...

oxidized insulin = test: Insulin reduction (turbidimetric) assay; type: biochemical; settings: recombinant PDI
NADPH oxidase = test system: NADPH oxidase; set-up: method as in 8 sources, one per row (each row's own in cited_ref): ref Shpungin et al., [1989] ||| ref Bellavite et al., [1983]; Gabig and Lefker, [1984] ||| ref Pick et al., [1987] ||| ref Le Cabec and Maridonneau-Parini, [1995] ||| ref Nishida et al., [2005] ||| ...; settings: ref Paes et al., [2011], cited from earlier work
p67^phox(1–212) [8] = target: T1, p67^phox(1–212) (UniProt P19878 1-212); test: ELISA; peptide—protein binding assay as a1, with peptide 24 and the modified peptides, all in the reduced form, subjected to oxidation by 1 mM H2O2; settings: both partners purified
T1 construct: contains four cysteines (40, 45, 121, 165); source: E. coli, purified (Nickel Sepharose); not shown: 6His, N-terminal, kept
T1 sequence (looked up): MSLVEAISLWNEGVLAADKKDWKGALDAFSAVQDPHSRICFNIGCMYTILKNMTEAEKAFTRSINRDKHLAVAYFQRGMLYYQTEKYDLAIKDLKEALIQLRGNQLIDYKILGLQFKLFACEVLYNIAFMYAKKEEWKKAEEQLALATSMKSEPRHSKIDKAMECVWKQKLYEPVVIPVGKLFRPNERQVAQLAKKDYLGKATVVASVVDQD

p67^phox(1–212) [9] = test: Protein–protein binding assay, p67phox(1–212); settings: homodimers, 0.5 μM, p67phox coated at 0.5 μM; one characteristic experiment (Figure 5B)
p67^phox(1–526) [10] = test: Protein–protein binding assay, p67phox(1–526); settings: homodimers, 0.5 μM, p67phox coated at 0.5 μM; one characteristic experiment (Figure 5A)

## 16F16
[1]
  inhibition of oxidase activation, in words: Lack of an inhibitory effect

## NC(=O)C1=CN([C@@H]2O[C@H](COP(=O)(O)OP(=O)(O)OC[C@H]3O[C@@H](n4cnc5c(N)ncnc54)[C@H](OP(=O)(O)O)[C@@H]3O)[C@@H](O)[C@H]2O)C=CC1 [NADPH]
[2]; up to 125 μM
  replacement of DTT in the DE-GSSG reduction assay: could not be replaced

## CN(C)C(=O)/N=N/C(=O)N(C)C [diamide]
p67^phox(1–526) [3]; NEM 0.1 mM or diamide 5 mM, three experiments (Figure 2A,B)
  effect of pretreatment of p67phox on low affinity binding to native form of peptide 24: suppressed
p67^phox(1–526) [3]; p67^phox(1–526) 1.5 μM, diamide 5 mM, three experiments (Figure 2B)
  effect of diamide pretreatment of p67phox on binding to peptide 24 in the disulfide form: totally abolished

## IVGDWTEGLFNACGC [peptide 24, 15-mer Nox2 peptide, residues 357–371, CGC triad at C-terminus]
[4]
  increase in binding of p67phox on introduction of intramolecular disulfide bond linking C369 and C371: marked increase
[2]
  PDI activity of isolated Nox2 peptides: No PDI activity
p67^phox(1–212) [5]
  binding of p67phox(1–212): low affinity
p67^phox(1–526) [6]
  binding of p67phox(1–526): low affinity
[7]
  binding of p67phox to overlapping 15-mer peptides (peptide walking): binds preferentially
  binding of p67phox after introduction of intramolecular disulfide bond between C369 and C371: marked increase
  binding of p67phox after reduction of the disulfide bond and alkylation of the reduced thiols: totally abolished

## PDIA1: Recombinant PDI A1 (human), made in E. coli [reference compound]
Oxidized insulin
  concentration down to which activity could be measured in insulin reduction assay: 10 nM
[2]; 10 nM, DE-GSSG 0.8 μM, DTT 12.5 μM, pH 7.0, 24°C, mean ± SEM of 4 (PDIA1), 3 (PDIA3) experiments
  Vmax, PDI reductase activity (Figure 7C,D): 37,303 ± 1279
[2]; extrapolation of Vmax at 10 nM PDI to Vmax with 1 μM NusA-Nox2(357–570)
  reductase activity relative to NusA-Nox2(357–570): about 75 times

## oxidized PDI: exogenous oxidized PDI
NADPH oxidase
  effect of exogenous PDI on oxidase activation in vitro: enhance

## peptide 28: 15-mer Nox2 peptide, residues 369–383, CGC triad at N-terminus (CGCDKQEFQDAWKLP; UniProt P04839 369-383, looked up, fragment)
[4]
  increase in binding of p67phox on introduction of intramolecular disulfide bond linking C369 and C371: marked increase
[2]
  PDI activity of isolated Nox2 peptides: No PDI activity
p67^phox(1–212) [5]
  binding of p67phox(1–212): low affinity
p67^phox(1–526) [6]
  binding of p67phox(1–526): low affinity
[7]
  binding of p67phox to overlapping 15-mer peptides (peptide walking): binds preferentially
  binding of p67phox after introduction of intramolecular disulfide bond between C369 and C371: marked increase
  binding of p67phox after reduction of the disulfide bond and alkylation of the reduced thiols: totally abolished

## reduced PDI: exogenous reduced PDI
NADPH oxidase
  effect of exogenous PDI on oxidase activation in vitro: diminish

B1: scrambled RNAse: ribonuclease A, with scrambled disulfide bonds from bovine pancreas (protein, UniProt P61823 27-150, looked up)
Ribonuclease pancreatic: KETAAAKFERQHMDSSTSAASSSNYCNQMMKSRNLTKDRCKPVNTFVHESLADVQAVCSQKNVACKNGQTNCYQSYSTMSITDCRETGSSKYPNCAYKTTQANKHIIVACEGNPYVPVHFDASV
modifications: scrambled disulfide bonds
notes: ribonuclease A, with scrambled disulfide bonds from bovine pancreas
NADPH oxidase; neutrophil membranes and recombinant cytosolic components
  inhibition of oxidase activation, amphiphile-dependent cell-free system: inhibit oxidase activation
[1]
  IC50, NADPH oxidase activation: could not be determined
  inhibition of oxidase activation, in words: ineffective

B2: NusA-Nox2(372–570): fusion protein of NusA and Nox2 residues 372–570, lacks the CGC triad (protein)
chain: DKQEFQDAWKLPKIAVDGPFGTASEDVFSYEVVMLVGAGIGVTPFASILKSVWYKYCNNATNLKLKKIYFYWLCRDTHAFEWFADLLQLLESQMQERNNAGFLSYNIYLTGWDESQANHFAVHHDEEKDVITGLKQKTLYGRPNWDNEFKTIASQHPNTRIGVFLCGPEALAETLSKQSISNSESGPRGVHFIFNKENF
modifications: left off: NusA (E. coli), N-terminal, kept | His tag (from the purification on Nickel Sepharose), end not stated, state not stated
notes: fusion protein of NusA and Nox2 residues 372–570, lacks the CGC triad
[2]; 2 μM (Figure 6C)
  loss of PDI activity: almost complete loss of PDI activity
[2]; 2 μM, DE-GSSG 800 nM, DTT 12.5 μM, one characteristic experiment, DTT only 26,248
  Vmax, PDI reductase activity (Figure 6C): 31,920 milli relative fluorescence units per min

B3: Nox2 peptide 24 (357–371) with an intramolecular disulfide bond between C369 and C371 (peptide)
peptide: Biotin-SGSGIVGDWTEGLFNACGC-NH2
modifications: disulfide 17-19
SMILES: CC[C@H](C)[C@H](NC(=O)CNC(=O)[C@H](CO)NC(=O)CNC(=O)[C@H](CO)NC(=O)CCCC[C@@H]1SC[C@@H]2NC(=O)N[C@@H]21)C(=O)N[C@H](C(=O)NCC(=O)N[C@@H](CC(=O)O)C(=O)N[C@@H](Cc1c[nH]c2ccccc12)C(=O)N[C@H](C(=O)N[C@@H](CCC(=O)O)C(=O)NCC(=O)N[C@@H](CC(C)C)C(=O)N[C@@H](Cc1ccccc1)C(=O)N[C@@H](CC(N)=O)C(=O)N[C@@H](C)C(=O)N[C@H]1CSSC[C@@H](C(N)=O)NC(=O)CNC1=O)[C@@H](C)O)C(C)C
notes: spacer between the N-terminal biotin and the peptide, printed as Ser-Gly-Ser-Gly; also called 24N CGC S-S; 24N S-S; source: synthetic peptide (Mimotopes or Bachem), synthesized in the disulfide form; also made from the reduced peptide by oxidation with 1 mM H2O2; not shown: biotin, N-terminal, kept
p67^phox(1–212) [8]
  binding result: binds

B4: Nox2 peptide 24 analog with CGC replaced by CysGlyHisCys, intramolecular disulfide bond between cysteines 369 and 372 (peptide)
peptide: Biotin-SGSGIVGDWTEGLFNACGHC-NH2
modifications: disulfide 17-20
SMILES: CC[C@H](C)[C@H](NC(=O)CNC(=O)[C@H](CO)NC(=O)CNC(=O)[C@H](CO)NC(=O)CCCC[C@@H]1SC[C@@H]2NC(=O)N[C@@H]21)C(=O)N[C@H](C(=O)NCC(=O)N[C@@H](CC(=O)O)C(=O)N[C@@H](Cc1c[nH]c2ccccc12)C(=O)N[C@H](C(=O)N[C@@H](CCC(=O)O)C(=O)NCC(=O)N[C@@H](CC(C)C)C(=O)N[C@@H](Cc1ccccc1)C(=O)N[C@@H](CC(N)=O)C(=O)N[C@@H](C)C(=O)N[C@H]1CSSC[C@@H](C(N)=O)NC(=O)[C@H](Cc2c[nH]cn2)NC(=O)CNC1=O)[C@@H](C)O)C(C)C
notes: spacer between the N-terminal biotin and the peptide, printed as Ser-Gly-Ser-Gly; also called 24N CGHC S-S (disulfide form); source: synthetic peptide (Mimotopes or Bachem), synthesized in the disulfide form; also made from the reduced peptide by oxidation with 1 mM H2O2; not shown: biotin, N-terminal, kept
p67^phox(1–212) [8]
  binding result: binds

B5: Nox2 peptide 24 analog with CGC replaced by CysGlyProCys, intramolecular disulfide bond between cysteines 369 and 372 (peptide)
peptide: Biotin-SGSGIVGDWTEGLFNACGPC-NH2
modifications: disulfide 17-20
SMILES: CC[C@H](C)[C@H](NC(=O)CNC(=O)[C@H](CO)NC(=O)CNC(=O)[C@H](CO)NC(=O)CCCC[C@@H]1SC[C@@H]2NC(=O)N[C@@H]21)C(=O)N[C@H](C(=O)NCC(=O)N[C@@H](CC(=O)O)C(=O)N[C@@H](Cc1c[nH]c2ccccc12)C(=O)N[C@H](C(=O)N[C@@H](CCC(=O)O)C(=O)NCC(=O)N[C@@H](CC(C)C)C(=O)N[C@@H](Cc1ccccc1)C(=O)N[C@@H](CC(N)=O)C(=O)N[C@@H](C)C(=O)N[C@H]1CSSC[C@@H](C(N)=O)NC(=O)[C@@H]2CCCN2C(=O)CNC1=O)[C@@H](C)O)C(C)C
notes: spacer between the N-terminal biotin and the peptide, printed as Ser-Gly-Ser-Gly; also called 24N CGPC S-S (disulfide form); source: synthetic peptide (Mimotopes or Bachem), synthesized in the disulfide form; also made from the reduced peptide by oxidation with 1 mM H2O2; not shown: biotin, N-terminal, kept
p67^phox(1–212) [8]
  binding result: binds

B6: NusA-Nox2(328–570): fusion protein of NusA and Nox2 residues 328–570 (protein)
chain: KCPKVSKLEWHPFTLTSAPEEDFFSIHIRIVGDWTEGLFNACGCDKQEFQDAWKLPKIAVDGPFGTASEDVFSYEVVMLVGAGIGVTPFASILKSVWYKYCNNATNLKLKKIYFYWLCRDTHAFEWFADLLQLLESQMQERNNAGFLSYNIYLTGWDESQANHFAVHHDEEKDVITGLKQKTLYGRPNWDNEFKTIASQHPNTRIGVFLCGPEALAETLSKQSISNSESGPRGVHFIFNKENF
modifications: left off: NusA (E. coli), N-terminal, kept | His tag (from the purification on Nickel Sepharose), end not stated, state not stated
p67^phox(1–212) [9]
  binding of NusA-Nox2 to p67phox(1–212): significant binding
p67^phox(1–526) [10]
  binding of NusA-Nox2 to p67phox(1–526): significant binding
